Measured values published in patent US10473645B2, “Methods for identifying a receptor for a ligand and uses thereof” (UNIVERSITE DE GENEVE, priority 2014, dated 2019).

Legend:
Assay in all cases: OR transcript level by RT-qPCR after in vivo odorant exposure
Olfr730 = target: T1, Olfr730 (Mus musculus, UniProt A0A0U1RNX7); settings: 5% odorant, 5 hours
T1 construct: from tissue; host or cells: olfactory epithelium of adult C57BL/6 mice
Protocol: (§1) In vivo exposure to odorant: Starting 48 h before experiments, mice were habituated to pure DMSO on a cotton ball. 200 μl were pipetted directly onto the cotton and placed in the cage, replacing any cotton that was already in the cage for nest-making purposes.
On the day of the experiment, mice receiving odorants were transferred to a different room, where they were exposed to a cotton ball on which 200 μl of odorant diluted in pure DMSO were deposited. Exposures started in the morning between 8 and 10 am (that is two hours after lights were on) and mice were killed and dissected between 1 and 3 pm. […]
RNA concentrations were determined using an Amersham Ultrospec® 3100 Pro spectrophotometer, and RNA quality was evaluated with an Agilent Technologies 2100 Bioanalyzer®. […]
qPCR Ct values were analyzed using an in-house developed Microsoft Excel® macro file. […] Ct values were converted to quantities relative to the maximum for each given gene. Selected reference genes were then analyzed for variance using the geNorm algorithm. […]
Adult C57BL/6 mice were exposed to 5% acetophenone for 5 hours, and the level of transcripts of odorant receptors' genes were measured by RT-qPCR on extracts of olfactory epithelia from these mice, as described in the materials and methods section.

olfr109 = test system: olfr109; set-up: species or system mouse; key: The transcript downregulation of 21 out of the 26 olfactory receptor candidates obtained by RNAseq was confirmed by qPCR; false RNAseq positive candidates, namely OR candidates for which in fact mRNA was not downregulated following acetophenone exposure; settings: 5% acetophenone exposure
Protocol: as §1
(§2) On the day of the experiment, mice receiving odorants were transferred to a different room, where they were exposed to a cotton ball on which 200 μl of odorant diluted in pure DMSO were deposited. Exposures started in the morning between 8 and 10 am (that is two hours after lights were on) and mice were killed and dissected between 1 and 3 pm. […] If a number of different odorants were tested in the same experiment, a different overpressurized room would always be used for each odorant to avoid odor cross-contamination.
(§3) After odorant exposure, mice were killed by cervical dislocation and immediately decapitated. The main olfactory epithelia (MOE), were harvested in their entirety and transferred to a tube containing 600 μl of lysis buffer and β-mercaptoethanol (RNAeasy kit, Qiagen, following the manufacturer protocol) and a 0.5 cm diameter steel ball, and then put on ice. Samples were then homogenized using a FastPrep®-24 instrument (MP Biomedicals) at 6 m/s for 30 s and left on ice. RNA extraction was performed on all samples in parallel using the Qiagen RNeasy Mini® kit following the manufacturer's instructions. Two DNase treatments were performed on all samples: first using the Qiagen RNase-Free DNase Set® and then using the Life Technologies Ambion DNase I® kit. RNA samples were then aliquoted and stored at −80° C.
(§4) RNA concentrations were determined using an Amersham Ultrospec® 3100 Pro spectrophotometer, and RNA quality was evaluated with an Agilent Technologies 2100 Bioanalyzer®. Each reverse transcription was performed with 0.5 μg RNA using the Takara Primescript® kit, in a final volume of 10 μl. Primers for reverse transcription were equal mixtures of poly-T nucleotides and random hexamers. Negative controls (omitting the reverse transcriptase enzyme) were performed for each sample. 1/14th of the cDNA preparation was used for each triplicated qPCR reaction.
(§5) qPCR Ct values were analyzed using an in-house developed Microsoft Excel® macro file. Triplicate values were compared and outliers (values with a difference higher than 0.5 Ct to their nearest neighbor) were discarded. The number of conditions with an outlying value was always less than 10% of the total number of conditions. Ct values were converted to quantities relative to the maximum for each given gene. Selected reference genes were then analyzed for variance using the geNorm algorithm. All values were normalized with the olfactory tissue-specific genes Omp and Adcy3. β-Actin was used as a non-tissue-specific reference gene to control for differences in dissection between samples.
(§6) Mice (n=6) were exposed to 5% acetophenone or to a “neutral” control condition for 5 hours. An olfactory cDNA library corresponding to each animal was deep sequenced and the ratios of odorant receptor mRNA concentrations relative to controls were plotted (FIG. 3). […] Based on transcriptional downregulation levels observed by RNAseq following acetophenone exposure, a list of 26 candidate responsive ORs was determined (FIG. 3), that reached 74% decrease (Olfr145) or even over 80% (Olfr169) relative to controls. […] The transcript downregulation of 21 out of the 26 olfactory receptor candidates obtained by RNAseq was confirmed by qPCR.

olfr1135 = test system: olfr1135; set-up: species or system mouse; key: The transcript downregulation of 21 out of the 26 olfactory receptor candidates obtained by RNAseq was confirmed by qPCR; false RNAseq positive candidates, namely OR candidates for which in fact mRNA was not downregulated following acetophenone exposure; settings: 5% acetophenone exposure
Protocol: as §1, §2, §3, §4, §5, §6

olfr1350 = test system: olfr1350; set-up: species or system mouse; key: The transcript downregulation of 21 out of the 26 olfactory receptor candidates obtained by RNAseq was confirmed by qPCR; false RNAseq positive candidates, namely OR candidates for which in fact mRNA was not downregulated following acetophenone exposure; settings: 5% acetophenone exposure
Protocol: as §1, §2, §3, §4, §5, §6

olfr229 = test system: olfr229; set-up: species or system mouse; key: The transcript downregulation of 21 out of the 26 olfactory receptor candidates obtained by RNAseq was confirmed by qPCR; false RNAseq positive candidates, namely OR candidates for which in fact mRNA was not downregulated following acetophenone exposure; settings: 5% acetophenone exposure
Protocol: as §1, §2, §3, §4, §5, §6

olfr30 = test system: olfr30; set-up: species or system mouse; key: The transcript downregulation of 21 out of the 26 olfactory receptor candidates obtained by RNAseq was confirmed by qPCR; false RNAseq positive candidates, namely OR candidates for which in fact mRNA was not downregulated following acetophenone exposure; settings: 5% acetophenone exposure
Protocol: as §1, §2, §3, §4, §5, §6

olfr378 = test system: olfr378; set-up: species or system mouse; key: The transcript downregulation of 21 out of the 26 olfactory receptor candidates obtained by RNAseq was confirmed by qPCR; false RNAseq positive candidates, namely OR candidates for which in fact mRNA was not downregulated following acetophenone exposure; settings: 5% acetophenone exposure
Protocol: as §1, §2, §3, §4, §5, §6

olfr736 = test system: olfr736; set-up: species or system mouse; key: The transcript downregulation of 21 out of the 26 olfactory receptor candidates obtained by RNAseq was confirmed by qPCR; false RNAseq positive candidates, namely OR candidates for which in fact mRNA was not downregulated following acetophenone exposure; settings: 5% acetophenone exposure
Protocol: as §1, §2, §3, §4, §5, §6

olfr901 = test system: olfr901; set-up: species or system mouse; key: The transcript downregulation of 21 out of the 26 olfactory receptor candidates obtained by RNAseq was confirmed by qPCR; false RNAseq positive candidates, namely OR candidates for which in fact mRNA was not downregulated following acetophenone exposure; settings: 5% acetophenone exposure
Protocol: as §1, §2, §3, §4, §5, §6

olfr922 = test system: olfr922; set-up: species or system mouse; key: The transcript downregulation of 21 out of the 26 olfactory receptor candidates obtained by RNAseq was confirmed by qPCR; false RNAseq positive candidates, namely OR candidates for which in fact mRNA was not downregulated following acetophenone exposure; settings: 5% acetophenone exposure
Protocol: as §1, §2, §3, §4, §5, §6

olfr935 = test system: olfr935; set-up: species or system mouse; key: The transcript downregulation of 21 out of the 26 olfactory receptor candidates obtained by RNAseq was confirmed by qPCR; false RNAseq positive candidates, namely OR candidates for which in fact mRNA was not downregulated following acetophenone exposure; settings: 5% acetophenone exposure
Protocol: as §1, §2, §3, §4, §5, §6

T1 sequence (A0A0U1RNX7 1-317): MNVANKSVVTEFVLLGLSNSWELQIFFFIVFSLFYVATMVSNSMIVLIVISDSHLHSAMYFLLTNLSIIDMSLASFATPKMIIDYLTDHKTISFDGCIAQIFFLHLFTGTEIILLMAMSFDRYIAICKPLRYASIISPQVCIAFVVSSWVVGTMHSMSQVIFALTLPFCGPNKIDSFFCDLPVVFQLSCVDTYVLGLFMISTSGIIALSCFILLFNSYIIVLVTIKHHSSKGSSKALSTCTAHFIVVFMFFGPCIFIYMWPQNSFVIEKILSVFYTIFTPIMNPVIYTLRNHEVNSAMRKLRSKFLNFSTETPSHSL

CC(=O)c1ccccc1 [acetophenone]
Olfr730 mRNA concentration increase, fold change (Olfr730): 1.4 fold
olfr109 candidate OR (RNAseq) confirmed by qPCR (olfr109): y
olfr1135 candidate OR (RNAseq) confirmed by qPCR (olfr1135): n
olfr1350 candidate OR (RNAseq) confirmed by qPCR (olfr1350): n
olfr229 candidate OR (RNAseq) confirmed by qPCR (olfr229): y
olfr30 candidate OR (RNAseq) confirmed by qPCR (olfr30): y
olfr378 candidate OR (RNAseq) confirmed by qPCR (olfr378): n
olfr736 candidate OR (RNAseq) confirmed by qPCR (olfr736): y
olfr901 candidate OR (RNAseq) confirmed by qPCR (olfr901): y
olfr922 candidate OR (RNAseq) confirmed by qPCR (olfr922): y
olfr935 candidate OR (RNAseq) confirmed by qPCR (olfr935): y
